From patent US20160193299A1, “MODIFIED NUCLEOSIDE, NUCLEOTIDE, AND NUCLEIC ACID COMPOSITIONS” (Moderna Therapeutics, Inc., priority 2011, published 2016)
One block for each molecule: values may come before it.

Columns and labels:
mouse myoblast (C2C12) = test: Example 44 signal sequence exchange study, secreted G-CSF ELISA; assay type: cell-based; conditions: MM, 250 ng modified mRNA, supernatant after 24 hrs
Excerpt: (§1) These variants included the G-CSF constructs encoding either the wild-type N terminal secretory signal peptide sequence ([…]; SEQ ID NO: 21), no secretory signal peptide sequence, or secretory signal peptide sequences taken from other mRNAs. These included sequences where the wild type GCSF signal peptide sequence was replaced with the signal peptide sequence of either: human α-1-anti trypsin (AAT) ([…]; SEQ ID NO: 22), human Factor IX (FIX) ([…]; SEQ ID NO: 23), human Prolactin (Prolac) ([…]; SEQ ID NO: 24), or human Albumin (Alb) ([…]; SEQ ID NO: 25).
(§2) 250 ng of modified mRNA encoding each G-CSF variant was transfected into HEK293A (293A in the table), mouse myoblast (MM in the table) (C2C12, CRL-1772, ATCC) and rat myoblast (RM in the table) (L6 line, CRL-1458, ATCC) cell lines in a 24 well plate using 1 ul of Lipofectamine 2000 (Life Technologies), each well containing 300,000 cells. […] The data shown in Table 68 reveal that cells transfected with G-CSF mmRNA encoding the Albumin signal peptide secrete at least 12 fold more G-CSF protein than its wild type counterpart.

rat myoblast (L6 line) = test: as above; assay type: cell-based; conditions: RM, 250 ng modified mRNA, supernatant after 24 hrs
Excerpt: as §1, §2

Factor IX [1] = test: Example 16 lipid nanoparticle in vivo study, serum Factor IX ELISA; set-up: species or system mice
Protocol: Mice were sacrificed at 8 hrs after dosing. […] Protein expression was determined by ELISA.
As used in Table 30, the symbol “˜” means about.

Factor IX [2] = test: Example 39 in vivo study of Factor IX mmRNA IM, serum Factor IX; conditions: mice IM, 2×100 ug/mouse, 13 hours
Protocol: Human Factor IX mmRNA (Gen1; fully modified 5-methycytosine and pseudouridine) formulated in formulation buffer was delivered to mice via intramuscular injection.
The mice were bled at 13 hours after the intramuscular injection to determine the concentration of human the polypeptide in serum in pg/mL.

HEK293A = test: Example 44 signal sequence exchange study, secreted G-CSF ELISA; assay type: cell-based, human; conditions: 293A, 250 ng modified mRNA, supernatant after 24 hrs
Excerpt: as §1, §2

Factor IX protein = test: Factor IX mRNA transfected in serum-free media (2D HPLC / MALDI peptide detection); assay type: cell-based, Human; conditions: 8 peptides detected, 7 unique to Factor IX
Excerpt: The cell culture supernatant was collected and subjected to trypsin digestion before undergoing 2-dimensional HPLC separation of the peptides. Matrix-assisted laser desorption/ionization was used to detect the peptides. 8 peptides were detected and 7 of the detected peptides are unique to Factor IX.

[3] = test system: female Sprague Dawley rats; test: In vivo delivery of modified RNA: G-CSF protein in rat serum (I.M.); conditions: I.M. 400 ug in 100 ul, 5% sucrose, 8 hours after injection
Protocol: Protein production of modified mRNA was evaluated by delivering modified G-CSF mRNA or modified Factor IX mRNA to female Sprague Dawley rats (n=6). […] Blood was collected 8 hours after injection and the G-CSF protein level in serum was measured by ELISA.

IFN-alpha = test: Example 45 cytokine study in PBMC, IFN-alpha ELISA; assay type: cell-based, human; conditions: for IFN-alpha signal - 2 donor average: PBMC
Protocol: (§3) The plates were then incubated at 37 C.
(§4) Each condition was done in duplicate.
(§5) Shown in Tables 69 and 70 are the average from 2 separate PBMC donors of the G-CSF and IFN-alpha production over time as measured by specific ELISA.

mice = test: In vivo cytokine expression study (serum IFN-alpha); conditions: mouse serum; I.M. 200 ug mRNA; after 8 hours
Protocol: After 8 hours serum was collected from the mice and analyzed for interferon-alpha (IFN-alpha) expression.

TNF-alpha = test: Example 46A percent-modified G-CSF mRNA transfected in PBMC, TNF-alpha ELISA; assay type: cell-based, human
Protocol: The supernatant was harvested and run by ELISA 22 hours after transfection to determine the protein expression.

Female BALB/C mice = test: In vivo detection of innate immune response: human G-CSF and mouse IFN-alpha in serum after I.M. injection; conditions: I.M., 8 hours after dosing
Protocol: Blood is collected at 8 hours after dosing and using ELISA the protein levels of G-CSF and interferon-alpha (IFN-alpha) is determined by ELISA and are shown in Table 81.

neutrophil count = test: Example 40 multi-site IM and SC administration of G-CSF mRNA, neutrophil count; assay type: in vivo; conditions: mice, day 3
Protocol: Injection of four doses or 2×50 ug (two sites) daily for three days (24 hrs interval) was performed. The fourth dose was administered 6 hrs before blood collection and CBC analysis. […] The mice were bled at 72 hours after the first mRNA injection (6 hours after the last mRNA dose) to determine the effect of mRNA-encoded human G-CSF on the neutrophil count. The dosing regimen is shown in Table 63 as are the resulting neutrophil counts (thousands/uL). In Table 63, an asterisks (*) indicate statistical significance at p<0.05.

human PBMC = test: Example 45 cytokine study in PBMC, G-CSF production ELISA; assay type: cell-based; conditions: Lipofectamine 2000
Protocol: as §3, §4, §5
In the G-CSF ELISA, background signal from the Lipofectamine 2000 untreated condition was subtracted at each timepoint. […] Many other cytokines were not affected by either modification.

human G-CSF = test: Example 32C human G-CSF modified RNA lipoplex vs saline comparison IM/SC, serum G-CSF ELISA; assay type: in vivo, C57/BL6 mice; conditions: mouse serum, I.M. or S.C., 13 hours
Protocol: A formulation containing 100 μg of either modified human G-CSF mRNA lipoplexed with 30% by volume of RNAIMAX™ with a 5-methylcytosine (5mc) and a pseudouridine (ψ) modification (G-CSF-Gen1-Lipoplex), modified human G-CSF mRNA with a 5mc and w modification in saline (G-CSF-Gen1-Saline), modified human G-CSF mRNA with a N1-5-methylcytosine (N1-5mc) and a w modification lipoplexed with 30% by volume of RNAIMAX™ (G-CSF-Gen2-Lipoplex), modified human G-CSF mRNA with a N1-5mc and ψ modification in saline (G-CSF-Gen2-Saline), modified luciferase with a 5mc and ψ modification lipoplexed with 30% by volume of RNAIMAX™ (Luc-Lipoplex), or modified luciferase mRNA with a a 5mc and ψ modification in saline (Luc-Saline) was delivered intramuscularly (I.M.) or subcutaneously (S.C.) and a control group for each method of administration was giving a dose of 80 uL of the formulation buffer (F. Buffer) to C57/BL6 mice. 13 hours post injection serum and tissue from the site of injection were collected from each mouse and analyzed by G-CSF ELISA to compare human G-CSF protein levels. The results of the human G-CSF protein in mouse serum from the intramuscular administration and the subcutaneous administration results are shown in Table 55.

Molecule: Factor IX: human Factor IX mRNA SEQ ID NO: 10, polyA ~160 nt, Cap1, fully modified with 5-methylcytosine and pseudouridine
secreted G-CSF protein (mouse myoblast (C2C12)): 6175 pg/mL
secreted G-CSF protein (rat myoblast (L6 line)): 11675 pg/mL
Factor IX Serum Concentration 8-12 hours after administration (Factor IX [1]; IM, 2 × 100 ug): ~1.6 ng/mL
Factor IX Serum Concentration 8-12 hours after administration (Factor IX [1]; IV (LNP), 1 ug): ~40 ng/mL
Factor IX Serum Concentration 8-12 hours after administration (Factor IX [1]; IV (LNP), 10 ug): ~400 ng/mL
Factor IX Serum Concentration 8-12 hours after administration (Factor IX [1]; IV (LNP), 100 ug): ~3,000-10,000 ng/ml
Factor IX Protein Expression, Conc (Factor IX [1]; mice IV LNP, 10 ug, serum 8 hrs): 383.04 ng/mL
Factor IX Protein Expression, Conc (Factor IX [1]; mice IV LNP, 100 ug, serum 8 hrs, dilution 50x): 3247.75 ng/mL
Factor IX Protein Expression, Conc (Factor IX [1]; mice IV LNP, 100 ug, serum 8 hrs, dilution 250x): 11177.20 ng/mL
Factor IX protein expression (Factor IX [1]; mice IV LNP, 100 ug, serum 8 hrs, range given in text): 3000 to 11000 ng/mL
Factor IX in serum (Factor IX [2]): 1600 pg/mL
secreted G-CSF protein (HEK293A): 11675 pg/mL

Molecule: Factor IX Gen 1: Factor IX mRNA SEQ ID NO: 10, Cap1, fully modified with 5-methylcytosine and pseudouridine
expression of Factor IX protein (Factor IX protein): able to express full-length Factor IX protein
G-CSF protein [3]: 2.25 pg/mL

IFN-alpha signal - 2 donor average (IFN-alpha; 2 Hr): 39.1 pg/mL
IFN-alpha signal - 2 donor average (IFN-alpha; 4 Hr): 151.3 pg/mL
IFN-alpha signal - 2 donor average (IFN-alpha; 8 Hr): 278.4 pg/mL
IFN-alpha signal - 2 donor average (IFN-alpha; 20 Hr): 362.2 pg/mL
IFN-alpha signal - 2 donor average (IFN-alpha; 44 Hr): 208.1 pg/mL
TNF-alpha Expression (TNF-alpha): 256.6 pg/mL
Molecule: CCOCc1nc2c(N)nc3ccccc3c2n1CC(C)(C)O [Formulation R-848, reference compound]
IFN-alpha (mice): 40.971 pg/mL
G-CSF protein (Female BALB/C mice; human G-CSF in mouse serum, 200 ug/mouse mRNA (R848 75 ug) in 5% sucrose): 3.4 pg/mL
IFN-alpha expression (Female BALB/C mice; mouse IFN-alpha in serum, 200 ug/mouse mRNA (R848 75 ug)): 40.97 pg/mL

B1: Gen2 G-CSF mRNA: human G-CSF mRNA SEQ ID NO: 6 fully modified with 5-methylcytosine and N1-methylpseudouridine (nucleic acid, listed as Homo sapiens)
chain: GGGAAAUAAGAGAGAAAAGAAGAGUAAGAAGAAAUAUAAGAGCCACCAUGGCCGGUCCCGCGACCCAAAGCCCCAUGAAACUUAUGGCCCUGCAGUUGCUGCUUUGGCACUCGGCCCUCUGGACAGUCCAAGAAGCGACUCCUCUCGGACCUGCCUCAUCGUUGCCGCAGUCAUUCCUUUUGAAGUGUCUGGAGCAGGUGCGAAAGAUUCAGGGCGAUGGAGCCGCACUCCAAGAGAAGCUCUGCGCGACAUACAAACUUUGCCAUCCCGAGGAGCUCGUACUGCUCGGGCACAGCUUGGGGAUUCCCUGGGCUCCUCUCUCGUCCUGUCCGUCGCAGGCUUUGCAGUUGGCAGGGUGCCUUUCCCAGCUCCACUCCGGUUUGUUCUUGUAUCAGGGACUGCUGCAAGCCCUUGAGGGAAUCUCGCCAGAAUUGGGCCCGACGCUGGACACGUUGCAGCUCGACGUGGCGGAUUUCGCAACAACCAUCUGGCAGCAGAUGGAGGAACUGGGGAUGGCACCCGCGCUGCAGCCCACGCAGGGGGCAAUGCCGGCCUUUGCGUCCGCGUUUCAGCGCAGGGCGGGUGGAGUCCUCGUAGCGAGCCACCUUCAAUCAUUUUUGGAAGUCUCGUACCGGGUGCUGAGACAUCUUGCGCAGCCGUGAAGCGCUGCCUUCUGCGGGGCUUGCCUUCUGGCCAUGCCCUUCUUCUCUCCCUUGCACCUGUACCUCUUGGUCUUUGAAUAAAGCCUGAGUAGGAAG
modifications: 5mC/N1-methylpseudouridine modified
innate immune recognition, cytokine production (IFN-alpha and others) (IFN-alpha; human PBMC, Lipofectamine 2000): did not significantly increase cytokines
increase in neutrophil count above control (neutrophil count; intramuscular): two fold increase
increase in neutrophil count above control (neutrophil count; subcutaneous): two fold increase
G-CSF production (human PBMC): highest level of G-CSF production
human G-CSF protein production relative to 5-methylcytosine/pseudouridine modified mRNA (human G-CSF): increased human G-CSF protein production
